# Measured values from paper PMC9057582, “HIF inhibitor 32-134D eradicates murine hepatocellular carcinoma in combination with anti-PD1 therapy” (The Journal of Clinical Investigation, 2022).
# Columns and labels:
# [1] = system: HIF-1, HIF-2 and p300 recruitment to HREs; test: ChIP-qPCR of HRE occupancy in Hep3B cells; type: cell-based, human; details: 16 hours, 5 µM 32-134D or 10 µM PT2385
# Description: Coadministration of the proteasome inhibitor MG-132 blocked the effect of 32-134D on HIF-1α protein levels (Figure 1H). […] Taken together, the results presented in Figure 1 and Supplemental Figures 1–3 indicate that 32-134D induces HIF-α subunit degradation, thereby inhibiting activation of HIF-1 and HIF-2 target gene transcription.
# Cells were seeded overnight and then exposed to 20% or 1% O2 in the presence of compound or vehicle for 16 hours. Protein was cross-linked to DNA by addition of 37% formaldehyde to culture medium for 10 minutes at 37°C and quenched by addition of 0.1 M glycine. Cells were washed with and collected in 5 mL of cold PBS containing PIs. Cells were pelleted and resuspended in 200 μL of SDS lysis buffer (50 mM Tris-HCl [pH 8.1], 10 mM EDTA, 1% SDS) containing PIs and incubated on ice for 10 minutes. Lysates were sonicated to produce DNA fragments ranging from 200 to 900 bp and centrifuged for 10 minutes at 4°C. Supernatants were collected and diluted 10-fold with dilution buffer (16.7 mM Tris-HCl [pH 8.1], 167 mM NaCl, 1.2 mM EDTA, 0.01% SDS, 1.1% Triton X-100) with PIs, precleared with 20 μL of salmon sperm DNA/protein A agarose slurry, and a 20-μL aliquot was reserved as input control. Antibody (2 μg; see Supplemental Table 6) was added and samples were rotated overnight at 4°C. Immune complexes were precipitated with 50 μL of salmon sperm DNA/protein A agarose slurry. Pelleted beads were washed serially using low-salt wash buffer (20 mM Tris-HCl [pH 8.1], 150 mM NaCl, 2 mM EDTA, 0.1% SDS, 1% Triton X-100); high-salt wash buffer (20 mM Tris-HCl [pH 8.1], 500 mM NaCl, 2 mM EDTA, 0.1% SDS, 1% Triton X-100); LiCl wash buffer (10 mM Tris-HCl [pH 8.1], 0.25 M LiCl, 1% Nonidet P-40, 1% deoxycholate, 1 mM EDTA); and TE buffer (10 mM Tris-HCl [pH 8.1], 1 mM EDTA). Elution buffer (1% SDS, 0.1 M NaHCO3) was added and eluates were heated at 65°C overnight to reverse cross-linking. Eluates were treated with proteinase K for 1 hour at 45°C and DNA was purified by extraction in phenol/chloroform/isoamyl alcohol (25:24:1, v/v/v) and isopropanol precipitation. […]
# [2] = system: HIF-1α and HIF-2α protein; test: Immunoblot of nuclear extracts of Hep3B cells; type: cell-based, human; details: 5 μM, 24 hours
# Description: Figure 1 Identification of HIF inhibitors. (A) Hep3B-c1 cells were stably transfected with firefly luciferase (FLuc) reporter p2.1, which contains a hypoxia-response element (HRE), and Renilla luciferase (RLuc) reporter pSVR. (B) Hep3B-c1 cells were incubated with vehicle (Veh; 0.1% DMSO; blue bars) or 10 μM 32-134D (red bars) at 20% O2 (n = 6) or 1% O2 (n = 12) for 24 hours. Cell lysates were assayed for Fluc/Rluc activity (mean ± SEM); *P < 0.05 versus vehicle (χ^2 test). (C) Chemical structures and IC50 values for HIF inhibitors. (D and E) Hep3B cells were exposed to 20% O2 with vehicle, or 1% O2 with vehicle (blue bar), 32-134D (red bars), 33-063 (green bars), or PT2385 (brown bars) for 24 hours and CA9 (D) and EPO (E) mRNAs were quantified by RT-qPCR. […] (F) Hep3B cells were exposed to 20% or 1% O2 in the presence of vehicle or 1% O2 in the presence of 5 μM 32-134D (n = 3 each) for 24 hours. RNA sequencing identified genes with hypoxia-induced expression (blue circle) and genes that were inhibited by 32-134D (orange circle), based on FDR < 0.05 and fold change > 1.5. (G) Hep3B cells were exposed to 20% or 1% O2 for 24 hours in the presence of vehicle or 5 μM 32-134D, nuclear extracts were prepared, and immunoblot assays were performed. […]
compound,measurement,setting,value
Brc1ccc2c(-c3csc(-c4c[nH]c5c(Br)cccc45)n3)c[nH]c2c1 [Compound 32-134D],hypoxia-induced recruitment of HIFs and p300 to EPO and ANGPTL4 HREs,[1],impaired
same,hypoxia-induced recruitment of HIFs and p300 to the CA9 HRE,[1],impaired
same,HIF-1α protein expression,[2],inhibited
